ChEMBL document CHEMBL1201862, “PubChem BioAssay data set” (2004)
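Values below derive from 48-hour exposures of cells grown in 96-well plates, with endpoints linearly interpolated between the two concentrations bracketing the appropriate inhibition level. GI50 marks 50% less growth.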 Active and inactive are the calls of the source. Cut-off read from the data, not from the text of the source: active = GI50 up to about 1.1 µM and inactive = higher.

How the values were obtained:
Experiment in all cases: NCI-60 cell line screen, 48 h
NCI-H226 = system: NCI-H226
COLO 205 = system: COLO 205
HCC 2998 = system: HCC 2998
MOLT-4 = system: MOLT-4
HL-60 = system: HL-60
IGROV-1 = system: IGROV-1
NCI-H522 = system: NCI-H522
OVCAR-5 = system: OVCAR-5
UACC-257 = system: UACC-257
MDA-MB-231 = system: MDA-MB-231
T47D = system: T47D
PC-3 = system: PC-3
786-0 = system: 786-0
Malme-3M = system: Malme-3M
HCT-15 = system: HCT-15
HOP-62 = system: HOP-62
TK-10 = system: TK-10
NCI-H23 = system: NCI-H23
UACC-62 = system: UACC-62
HCT-116 = system: HCT-116
M14 = system: M14
SNB-75 = system: SNB-75
SNB-19 = system: SNB-19
DU-145 = system: DU-145
MDA-N = system: MDA-N
HT-29 = system: HT-29
MDA-MB-435 = system: MDA-MB-435
RPMI-8226 = system: RPMI-8226
SF-539 = system: SF-539
EKVX = system: EKVX
SW-620 = system: SW-620
CCRF-CEM = system: CCRF-CEM
SK-MEL-5 = system: SK-MEL-5
SK-OV-3 = system: SK-OV-3
RXF 393 = system: RXF 393
KM12 = system: KM12
UO-31 = system: UO-31
CAKI-1 = system: CAKI-1
NCI/ADR-RES = system: NCI/ADR-RES
K562 = system: K562
OVCAR-8 = system: OVCAR-8
SK-MEL-2 = system: SK-MEL-2
LOX IMVI = system: LOX IMVI
MCF7 = system: MCF7
SK-MEL-28 = system: SK-MEL-28
U-251 = system: U-251
A549 = system: A549
SF-295 = system: SF-295
ACHN = system: ACHN
OVCAR-3 = system: OVCAR-3
A498 = system: A498
SN12C = system: SN12C
OVCAR-4 = system: OVCAR-4
HOP-92 = system: HOP-92

How did the GI50 (NCI-H226) turn out when `CC(C)=C/C=C1/CS(=O)(=O)C=C1C` was run?
The GI50 was > 100 µM (inactive).

And the GI50 (COLO 205)?
The GI50 was > 100 µM (inactive).

What about the GI50 (HCC 2998) of the same molecule?
The GI50 was > 100 µM (inactive).

And the GI50 (MOLT-4)?
The GI50 was > 100 µM (inactive).

And the GI50 (HL-60)?
Its GI50 is > 100 µM (inactive).

And the GI50 (IGROV-1)?
Its GI50 is > 100 µM (inactive).

And the GI50 (NCI-H522)?
The GI50 was > 100 µM (inactive).

What about the GI50 (OVCAR-5) of the same molecule?
The GI50 was > 100 µM (inactive).

What about the GI50 (UACC-257) of the same molecule?
The GI50 was > 100 µM (inactive).

What about the GI50 (MDA-MB-231) of the same molecule?
The GI50 was > 100 µM (inactive).

And the GI50 (T47D)?
Its GI50 is > 100 µM (inactive).

What about the GI50 (PC-3) of the same molecule?
The GI50 was > 100 µM (inactive).

What about the GI50 (786-0) of the same molecule?
Its GI50 is > 100 µM (inactive).

And the GI50 (Malme-3M)?
Its GI50 is > 100 µM (inactive).

And the GI50 (HCT-15)?
Its GI50 is 47.4 µM.

What about the GI50 (HOP-62) of the same molecule?
Its GI50 is > 100 µM (inactive).

What about the GI50 (TK-10) of the same molecule?
Its GI50 is > 100 µM (inactive).

And the GI50 (NCI-H23)?
The GI50 was > 100 µM (inactive).

And the GI50 (UACC-62)?
The GI50 was > 100 µM (inactive).

And the GI50 (HCT-116)?
The GI50 was > 100 µM (inactive).

And the GI50 (M14)?
Its GI50 is > 100 µM (inactive).

What about the GI50 (SNB-75) of the same molecule?
Its GI50 is > 100 µM (inactive).

And the GI50 (SNB-19)?
Its GI50 is > 100 µM (inactive).

What about the GI50 (DU-145) of the same molecule?
The GI50 was > 100 µM (inactive).

What about the GI50 (MDA-N) of the same molecule?
The GI50 was > 100 µM (inactive).

And the GI50 (HT-29)?
The GI50 was > 100 µM (inactive).

What about the GI50 (MDA-MB-435) of the same molecule?
The GI50 was > 100 µM (inactive).

And the GI50 (RPMI-8226)?
Its GI50 is > 100 µM (inactive).

And the GI50 (SF-539)?
The GI50 was > 100 µM (inactive).

What about the GI50 (EKVX) of the same molecule?
The GI50 was > 100 µM (inactive).

What about the GI50 (SW-620) of the same molecule?
The GI50 was > 100 µM (inactive).

What about the GI50 (CCRF-CEM) of the same molecule?
Its GI50 is > 100 µM (inactive).

And the GI50 (SK-MEL-5)?
Its GI50 is > 100 µM (inactive).

And the GI50 (SK-OV-3)?
Its GI50 is > 100 µM (inactive).

And the GI50 (RXF 393)?
The GI50 was > 100 µM (inactive).

What about the GI50 (KM12) of the same molecule?
The GI50 was > 100 µM (inactive).

What about the GI50 (UO-31) of the same molecule?
Its GI50 is > 100 µM (inactive).

And the GI50 (CAKI-1)?
Its GI50 is > 100 µM (inactive).

What about the GI50 (NCI/ADR-RES) of the same molecule?
The GI50 was > 100 µM (inactive).

What about the GI50 (K562) of the same molecule?
Its GI50 is > 100 µM (inactive).

And the GI50 (OVCAR-8)?
The GI50 was > 100 µM (inactive).

And the GI50 (SK-MEL-2)?
The GI50 was > 100 µM (inactive).

And the GI50 (LOX IMVI)?
The GI50 was > 100 µM (inactive).

What about the GI50 (MCF7) of the same molecule?
Its GI50 is > 100 µM (inactive).

And the GI50 (SK-MEL-28)?
The GI50 was > 100 µM (inactive).

And the GI50 (U-251)?
Its GI50 is > 100 µM (inactive).

And the GI50 (A549)?
Its GI50 is > 100 µM (inactive).

What about the GI50 (SF-295) of the same molecule?
Its GI50 is > 100 µM (inactive).

And the GI50 (ACHN)?
Its GI50 is > 100 µM (inactive).

And the GI50 (OVCAR-3)?
Its GI50 is > 100 µM (inactive).

And the GI50 (A498)?
The GI50 was > 100 µM (inactive).

What about the GI50 (SN12C) of the same molecule?
The GI50 was > 100 µM (inactive).

`O=C(NCCCl)Nc1cccnc1` was tested. Which GI50 (NCI-H226) did it give?
The GI50 was 15.7 µM (inactive).

What about the GI50 (COLO 205) of the same molecule?
The GI50 was 24.7 µM (inactive).

And the GI50 (HCC 2998)?
Its GI50 is 17.7 µM (inactive).

What about the GI50 (MOLT-4) of the same molecule?
Its GI50 is 33 µM (inactive).

What about the GI50 (HL-60) of the same molecule?
Its GI50 is 49.3 µM (inactive).

And the GI50 (IGROV-1)?
The GI50 was 13.6 µM (inactive).

What about the GI50 (NCI-H522) of the same molecule?
Its GI50 is 25.6 µM (inactive).

And the GI50 (UACC-257)?
The GI50 was 8 µM (inactive).

What about the GI50 (MDA-MB-231) of the same molecule?
The GI50 was 17.4 µM (inactive).

What about the GI50 (T47D) of the same molecule?
The GI50 was 35.7 µM (inactive).

What about the GI50 (PC-3) of the same molecule?
Its GI50 is 31.4 µM (inactive).

And the GI50 (786-0)?
The GI50 was 16.9 µM (inactive).

What about the GI50 (Malme-3M) of the same molecule?
The GI50 was 2.62 µM (inactive).

And the GI50 (HCT-15)?
The GI50 was 22.3 µM.

And the GI50 (HOP-62)?
The GI50 was 34.4 µM (inactive).

What about the GI50 (TK-10) of the same molecule?
Its GI50 is 11.2 µM (inactive).

What about the GI50 (NCI-H23) of the same molecule?
The GI50 was 17.5 µM (inactive).

What about the GI50 (UACC-62) of the same molecule?
The GI50 was 15.3 µM (inactive).

What about the GI50 (HCT-116) of the same molecule?
Its GI50 is 13.8 µM (inactive).

And the GI50 (M14)?
Its GI50 is 17.6 µM (inactive).

What about the GI50 (SNB-75) of the same molecule?
The GI50 was 29.6 µM (inactive).

And the GI50 (OVCAR-4)?
Its GI50 is 43.1 µM (inactive).

And the GI50 (SNB-19)?
Its GI50 is 41.4 µM (inactive).

What about the GI50 (DU-145) of the same molecule?
Its GI50 is 15.4 µM (inactive).

What about the GI50 (MDA-N) of the same molecule?
Its GI50 is 12.8 µM (inactive).

What about the GI50 (HT-29) of the same molecule?
The GI50 was 18.4 µM (inactive).

And the GI50 (MDA-MB-435)?
Its GI50 is 24.5 µM (inactive).

What about the GI50 (RPMI-8226) of the same molecule?
The GI50 was 2.84 µM (inactive).

And the GI50 (SF-539)?
The GI50 was 31.3 µM (inactive).

And the GI50 (EKVX)?
Its GI50 is 14.1 µM (inactive).

And the GI50 (SW-620)?
The GI50 was 50.7 µM (inactive).

And the GI50 (CCRF-CEM)?
Its GI50 is 33.7 µM (inactive).

And the GI50 (SK-MEL-5)?
Its GI50 is 5.19 µM (inactive).

And the GI50 (SK-OV-3)?
The GI50 was 20.6 µM (inactive).

And the GI50 (RXF 393)?
Its GI50 is 0.951 µM (active).

And the GI50 (KM12)?
Its GI50 is 13.8 µM (inactive).

And the GI50 (UO-31)?
The GI50 was 22.3 µM (inactive).

And the GI50 (CAKI-1)?
Its GI50 is 21.5 µM (inactive).

What about the GI50 (NCI/ADR-RES) of the same molecule?
The GI50 was 21 µM (inactive).

And the GI50 (K562)?
The GI50 was 50 µM (inactive).

And the GI50 (HOP-92)?
The GI50 was 19.9 µM (inactive).

What about the GI50 (OVCAR-8) of the same molecule?
The GI50 was 12.4 µM (inactive).

What about the GI50 (SK-MEL-2) of the same molecule?
The GI50 was 29 µM (inactive).

And the GI50 (LOX IMVI)?
The GI50 was 19.3 µM (inactive).

And the GI50 (MCF7)?
The GI50 was 41.3 µM (inactive).

What about the GI50 (SK-MEL-28) of the same molecule?
Its GI50 is 21.2 µM (inactive).

And the GI50 (U-251)?
Its GI50 is 16.7 µM (inactive).

What about the GI50 (A549) of the same molecule?
Its GI50 is 31.6 µM (inactive).

What about the GI50 (SF-295) of the same molecule?
The GI50 was 30 µM (inactive).

What about the GI50 (ACHN) of the same molecule?
The GI50 was 13.6 µM (inactive).

What about the GI50 (OVCAR-3) of the same molecule?
The GI50 was 26.5 µM (inactive).

And the GI50 (A498)?
Its GI50 is 24.7 µM (inactive).

And the GI50 (SN12C)?
The GI50 was 21.5 µM (inactive).
